Data reported in ChEMBL document CHEMBL4507268 (2021).

Experiments:
Conditions in all cases: Compound concentration 1.0 uM
[1] = biological target: T1, Serine/threonine-protein kinase TAO3 (Homo sapiens) (UniProt Q9H2K8)
T1 sequence (whole entry): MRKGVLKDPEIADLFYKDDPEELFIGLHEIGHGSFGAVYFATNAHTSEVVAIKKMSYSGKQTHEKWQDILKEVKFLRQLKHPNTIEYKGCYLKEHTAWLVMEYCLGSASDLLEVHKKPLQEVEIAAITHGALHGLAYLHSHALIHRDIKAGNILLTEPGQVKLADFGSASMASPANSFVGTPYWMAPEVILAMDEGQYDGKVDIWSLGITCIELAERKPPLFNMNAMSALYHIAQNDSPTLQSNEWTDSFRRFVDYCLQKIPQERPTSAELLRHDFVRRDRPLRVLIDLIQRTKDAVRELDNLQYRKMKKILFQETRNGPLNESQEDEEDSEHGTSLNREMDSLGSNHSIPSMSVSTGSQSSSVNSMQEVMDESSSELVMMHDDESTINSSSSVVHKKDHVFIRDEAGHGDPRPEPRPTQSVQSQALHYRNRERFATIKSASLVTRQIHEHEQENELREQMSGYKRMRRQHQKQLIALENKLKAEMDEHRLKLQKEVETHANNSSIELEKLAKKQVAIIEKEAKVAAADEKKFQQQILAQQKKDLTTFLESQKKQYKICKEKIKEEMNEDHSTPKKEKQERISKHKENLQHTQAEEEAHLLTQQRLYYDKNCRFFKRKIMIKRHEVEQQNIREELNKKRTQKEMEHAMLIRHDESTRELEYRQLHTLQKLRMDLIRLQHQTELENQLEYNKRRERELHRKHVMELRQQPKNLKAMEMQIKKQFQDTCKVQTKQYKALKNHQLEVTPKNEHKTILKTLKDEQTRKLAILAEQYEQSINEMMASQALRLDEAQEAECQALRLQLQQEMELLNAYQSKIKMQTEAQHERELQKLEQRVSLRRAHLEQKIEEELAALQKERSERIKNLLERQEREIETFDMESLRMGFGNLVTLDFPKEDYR

[2] = biological target: Rho-associated protein kinase 2 (Homo sapiens) (UniProt O75116)
Rho-associated protein kinase 2 (Homo sapiens), sequence (O75116 whole entry, looked up): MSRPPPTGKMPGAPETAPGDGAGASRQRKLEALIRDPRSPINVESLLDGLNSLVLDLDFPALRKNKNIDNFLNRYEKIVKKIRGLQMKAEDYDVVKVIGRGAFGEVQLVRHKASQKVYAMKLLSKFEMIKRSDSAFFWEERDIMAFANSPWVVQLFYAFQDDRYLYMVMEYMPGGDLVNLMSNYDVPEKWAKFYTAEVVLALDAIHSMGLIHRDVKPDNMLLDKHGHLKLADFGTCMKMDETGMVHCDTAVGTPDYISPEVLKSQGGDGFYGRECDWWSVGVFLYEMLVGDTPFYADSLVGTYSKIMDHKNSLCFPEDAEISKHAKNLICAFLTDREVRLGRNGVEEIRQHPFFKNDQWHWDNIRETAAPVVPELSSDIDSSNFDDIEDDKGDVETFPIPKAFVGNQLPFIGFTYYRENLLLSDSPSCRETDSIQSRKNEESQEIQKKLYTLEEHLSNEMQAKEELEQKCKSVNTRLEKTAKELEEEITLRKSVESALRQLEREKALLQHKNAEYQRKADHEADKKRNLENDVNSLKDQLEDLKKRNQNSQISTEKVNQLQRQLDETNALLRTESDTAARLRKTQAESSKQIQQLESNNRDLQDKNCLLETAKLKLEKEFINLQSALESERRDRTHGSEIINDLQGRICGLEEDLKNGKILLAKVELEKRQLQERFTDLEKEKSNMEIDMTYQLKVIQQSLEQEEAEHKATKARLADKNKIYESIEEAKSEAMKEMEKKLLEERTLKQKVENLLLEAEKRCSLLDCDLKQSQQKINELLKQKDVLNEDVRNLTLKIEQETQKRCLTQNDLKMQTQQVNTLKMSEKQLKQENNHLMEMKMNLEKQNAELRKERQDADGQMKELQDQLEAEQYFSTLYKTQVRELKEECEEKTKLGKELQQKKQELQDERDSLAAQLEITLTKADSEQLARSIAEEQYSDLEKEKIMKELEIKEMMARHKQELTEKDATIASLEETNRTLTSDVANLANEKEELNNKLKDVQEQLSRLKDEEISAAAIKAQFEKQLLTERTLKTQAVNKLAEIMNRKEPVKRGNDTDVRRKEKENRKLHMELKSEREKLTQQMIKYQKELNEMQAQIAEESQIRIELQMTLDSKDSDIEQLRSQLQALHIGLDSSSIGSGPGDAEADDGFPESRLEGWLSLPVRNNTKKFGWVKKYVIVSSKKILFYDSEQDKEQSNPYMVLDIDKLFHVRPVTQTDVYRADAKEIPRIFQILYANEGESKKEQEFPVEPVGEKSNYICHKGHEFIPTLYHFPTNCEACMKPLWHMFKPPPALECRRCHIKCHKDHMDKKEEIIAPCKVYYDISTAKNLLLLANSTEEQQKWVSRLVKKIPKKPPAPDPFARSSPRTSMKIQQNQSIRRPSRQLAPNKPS

[3] = biological target: Tau-tubulin kinase 1 (Homo sapiens) (UniProt Q5TCY1)
Tau-tubulin kinase 1 (Homo sapiens), sequence (Q5TCY1 whole entry): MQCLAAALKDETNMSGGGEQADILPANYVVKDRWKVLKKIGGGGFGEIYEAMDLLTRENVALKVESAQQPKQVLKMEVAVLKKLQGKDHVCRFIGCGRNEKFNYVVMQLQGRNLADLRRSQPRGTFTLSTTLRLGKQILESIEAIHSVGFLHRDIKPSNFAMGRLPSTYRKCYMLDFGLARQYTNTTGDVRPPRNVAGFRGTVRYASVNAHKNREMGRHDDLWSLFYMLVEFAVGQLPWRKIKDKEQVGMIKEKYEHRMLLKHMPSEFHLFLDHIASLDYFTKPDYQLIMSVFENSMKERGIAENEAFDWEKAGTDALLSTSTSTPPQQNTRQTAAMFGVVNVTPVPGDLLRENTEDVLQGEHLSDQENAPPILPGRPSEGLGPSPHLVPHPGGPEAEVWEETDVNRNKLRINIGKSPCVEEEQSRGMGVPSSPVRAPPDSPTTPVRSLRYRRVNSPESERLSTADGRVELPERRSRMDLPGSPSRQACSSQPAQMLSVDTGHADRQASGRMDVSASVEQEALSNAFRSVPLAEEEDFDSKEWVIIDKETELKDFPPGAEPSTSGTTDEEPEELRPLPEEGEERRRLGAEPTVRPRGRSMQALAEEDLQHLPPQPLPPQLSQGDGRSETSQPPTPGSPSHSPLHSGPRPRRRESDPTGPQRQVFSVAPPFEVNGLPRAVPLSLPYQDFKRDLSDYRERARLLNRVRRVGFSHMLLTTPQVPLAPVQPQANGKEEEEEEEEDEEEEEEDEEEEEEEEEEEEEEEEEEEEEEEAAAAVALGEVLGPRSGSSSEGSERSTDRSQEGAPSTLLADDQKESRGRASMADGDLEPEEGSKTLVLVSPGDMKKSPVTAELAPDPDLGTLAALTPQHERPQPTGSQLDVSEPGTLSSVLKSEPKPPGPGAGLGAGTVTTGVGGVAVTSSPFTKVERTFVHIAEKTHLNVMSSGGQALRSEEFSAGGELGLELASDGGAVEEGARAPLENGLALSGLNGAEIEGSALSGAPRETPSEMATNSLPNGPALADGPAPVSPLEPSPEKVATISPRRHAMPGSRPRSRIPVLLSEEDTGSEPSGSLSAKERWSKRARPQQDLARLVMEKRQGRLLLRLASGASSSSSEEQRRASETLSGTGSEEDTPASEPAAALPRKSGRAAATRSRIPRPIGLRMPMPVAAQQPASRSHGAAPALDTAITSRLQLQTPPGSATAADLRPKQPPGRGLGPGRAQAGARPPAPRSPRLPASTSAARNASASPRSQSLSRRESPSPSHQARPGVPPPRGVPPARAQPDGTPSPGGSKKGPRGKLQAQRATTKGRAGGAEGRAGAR

[4] = biological target: T2, Protein kinase C iota type (Homo sapiens) (UniProt P41743)
T2 sequence (whole entry): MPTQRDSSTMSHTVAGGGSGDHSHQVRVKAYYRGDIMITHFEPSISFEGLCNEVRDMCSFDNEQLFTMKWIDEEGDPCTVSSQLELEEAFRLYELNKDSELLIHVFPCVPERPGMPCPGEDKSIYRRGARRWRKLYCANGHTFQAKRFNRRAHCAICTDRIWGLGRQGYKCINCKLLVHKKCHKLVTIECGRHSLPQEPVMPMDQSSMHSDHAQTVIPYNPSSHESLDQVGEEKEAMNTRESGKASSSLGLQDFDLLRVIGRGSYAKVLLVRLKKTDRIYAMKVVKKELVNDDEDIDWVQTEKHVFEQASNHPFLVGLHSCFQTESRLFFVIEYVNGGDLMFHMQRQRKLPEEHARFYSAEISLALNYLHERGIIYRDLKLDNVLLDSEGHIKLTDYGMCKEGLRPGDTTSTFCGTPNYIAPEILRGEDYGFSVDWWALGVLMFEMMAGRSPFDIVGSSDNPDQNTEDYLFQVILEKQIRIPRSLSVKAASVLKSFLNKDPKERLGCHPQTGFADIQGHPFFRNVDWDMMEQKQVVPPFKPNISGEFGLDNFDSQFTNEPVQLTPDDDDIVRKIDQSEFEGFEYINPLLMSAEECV

[5] = biological target: Ribosomal protein S6 kinase beta-1 (Homo sapiens) (UniProt P23443)
Ribosomal protein S6 kinase beta-1 (Homo sapiens), sequence (P23443 whole entry, looked up): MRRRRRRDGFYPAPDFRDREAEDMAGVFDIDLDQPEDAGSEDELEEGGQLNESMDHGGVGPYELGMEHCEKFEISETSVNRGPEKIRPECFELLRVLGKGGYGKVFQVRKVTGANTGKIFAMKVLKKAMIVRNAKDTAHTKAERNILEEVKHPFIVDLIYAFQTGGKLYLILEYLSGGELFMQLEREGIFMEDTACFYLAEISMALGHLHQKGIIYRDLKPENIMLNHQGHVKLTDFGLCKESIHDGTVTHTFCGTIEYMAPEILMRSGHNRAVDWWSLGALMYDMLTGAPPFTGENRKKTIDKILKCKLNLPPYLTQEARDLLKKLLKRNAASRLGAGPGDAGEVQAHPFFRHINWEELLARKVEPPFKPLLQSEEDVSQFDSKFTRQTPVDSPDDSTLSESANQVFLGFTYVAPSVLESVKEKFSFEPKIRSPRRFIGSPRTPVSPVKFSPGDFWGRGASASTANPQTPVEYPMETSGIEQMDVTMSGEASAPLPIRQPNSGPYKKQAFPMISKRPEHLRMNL

[6] = biological target: Homeodomain-interacting protein kinase 2 (Homo sapiens) (UniProt Q9H2X6)
[7] = biological target: TRAF2 and NCK-interacting protein kinase (Homo sapiens) (UniProt Q9UKE5)
TRAF2 and NCK-interacting protein kinase (Homo sapiens), sequence (Q9UKE5 whole entry, looked up): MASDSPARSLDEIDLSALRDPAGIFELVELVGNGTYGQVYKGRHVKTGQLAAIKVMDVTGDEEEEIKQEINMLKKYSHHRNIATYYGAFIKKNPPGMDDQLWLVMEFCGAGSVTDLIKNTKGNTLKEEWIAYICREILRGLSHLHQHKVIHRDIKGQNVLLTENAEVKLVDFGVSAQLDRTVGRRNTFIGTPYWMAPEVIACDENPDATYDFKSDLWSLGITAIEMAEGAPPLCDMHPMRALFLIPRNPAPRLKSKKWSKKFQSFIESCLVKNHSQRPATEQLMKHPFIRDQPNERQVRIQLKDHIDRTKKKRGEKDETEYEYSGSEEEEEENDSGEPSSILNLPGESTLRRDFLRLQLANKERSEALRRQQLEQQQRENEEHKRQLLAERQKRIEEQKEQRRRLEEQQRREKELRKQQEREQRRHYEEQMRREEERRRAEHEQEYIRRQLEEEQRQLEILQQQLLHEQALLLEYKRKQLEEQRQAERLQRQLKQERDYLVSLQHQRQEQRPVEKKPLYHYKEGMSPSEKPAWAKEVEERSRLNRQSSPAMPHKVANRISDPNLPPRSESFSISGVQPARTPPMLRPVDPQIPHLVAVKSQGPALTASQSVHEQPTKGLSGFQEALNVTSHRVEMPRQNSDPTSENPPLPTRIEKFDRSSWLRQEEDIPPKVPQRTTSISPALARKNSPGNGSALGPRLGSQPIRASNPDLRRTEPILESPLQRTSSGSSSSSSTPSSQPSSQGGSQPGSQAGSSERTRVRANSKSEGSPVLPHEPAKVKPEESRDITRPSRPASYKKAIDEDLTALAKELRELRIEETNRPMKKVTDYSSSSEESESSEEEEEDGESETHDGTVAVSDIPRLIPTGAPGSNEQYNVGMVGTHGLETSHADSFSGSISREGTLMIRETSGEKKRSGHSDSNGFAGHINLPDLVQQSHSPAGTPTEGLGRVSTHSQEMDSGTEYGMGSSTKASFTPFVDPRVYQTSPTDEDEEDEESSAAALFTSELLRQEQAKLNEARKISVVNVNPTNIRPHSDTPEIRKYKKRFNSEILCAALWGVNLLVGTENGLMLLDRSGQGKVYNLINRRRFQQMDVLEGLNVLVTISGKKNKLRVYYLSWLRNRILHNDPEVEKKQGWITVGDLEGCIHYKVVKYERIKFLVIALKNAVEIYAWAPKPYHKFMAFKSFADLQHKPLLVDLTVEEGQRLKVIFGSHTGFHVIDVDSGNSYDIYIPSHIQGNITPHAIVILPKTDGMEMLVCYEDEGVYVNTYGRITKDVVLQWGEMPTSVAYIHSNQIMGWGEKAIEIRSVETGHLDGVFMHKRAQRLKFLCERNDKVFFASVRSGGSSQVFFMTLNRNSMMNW

[8] = biological target: T3, cGMP-dependent protein kinase 1 (Homo sapiens) (UniProt Q13976)
T3 sequence (whole entry): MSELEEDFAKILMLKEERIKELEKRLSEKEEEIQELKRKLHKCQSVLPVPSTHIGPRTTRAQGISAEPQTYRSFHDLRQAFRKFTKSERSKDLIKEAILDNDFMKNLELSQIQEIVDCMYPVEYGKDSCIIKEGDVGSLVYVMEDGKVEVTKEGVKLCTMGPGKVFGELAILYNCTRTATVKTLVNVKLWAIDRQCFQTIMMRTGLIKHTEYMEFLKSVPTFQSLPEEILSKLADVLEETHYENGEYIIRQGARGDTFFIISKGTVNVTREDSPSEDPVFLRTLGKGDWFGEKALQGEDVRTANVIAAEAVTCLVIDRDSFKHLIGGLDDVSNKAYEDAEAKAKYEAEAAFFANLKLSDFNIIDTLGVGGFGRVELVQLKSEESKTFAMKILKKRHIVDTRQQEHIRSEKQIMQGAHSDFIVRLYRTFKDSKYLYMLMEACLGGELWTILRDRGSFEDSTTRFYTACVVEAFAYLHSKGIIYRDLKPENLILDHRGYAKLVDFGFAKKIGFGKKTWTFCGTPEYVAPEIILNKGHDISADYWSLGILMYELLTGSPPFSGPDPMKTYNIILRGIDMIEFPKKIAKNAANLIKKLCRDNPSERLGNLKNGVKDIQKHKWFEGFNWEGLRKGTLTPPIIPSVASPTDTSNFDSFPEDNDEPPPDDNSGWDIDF

Measured: % residual kinase activity

CN1CCN(c2cnc3c(C4CCN(C(=O)c5ccc(OC(F)(F)F)cc5N)CC4)ncnc3c2)CC1 [BAY-885]
inactive: [1] 110% | [2] 91% | [3] 95% | [4] 102% | [5] 118% | [6] 107% | [7] 89% | [8] 115%
